# Key:
# chicken embryos [1] = experiment: Inhibitors counteracting thalidomide-induced limb truncations and microphthalmia in chicken embryos; format: in vivo
# Experimental: (§1) Fertilized eggs were purchased from Deindl GmbH, Rietberg-Varensell. They were incubated at 38° C. in a humidified incubator, windowed after one day and staged according to Hamburger and Hamilton (HH stage). Racemic thalidomide (Celgene), thalidomide enantiomers or phthalimide (Sigma) were dissolved in DMSO at 5 mg/ml and further diluted in PBS. Embryos were exposed to drugs by dropping 15 μg-3 mg thalidomide or phthalimide per kg egg weight (about 1-200 μg per embryo) in 50 μl DMSO/PBS as a single dose at HH stages 0-13 onto the embryo. Thalidomide (50 μg) or phthalimide (50 μg) in 10 μl DMSO was injected into the extra-embryonic blood vessels of HH 19 stage embryos. LiCl (99% pure, Sigma) was dissolved in sterile PBS. LiCl (0.1, 0.6 or 3.2 mg) was applied at HH stages 17-19 by dropping 500 μl of a 5 mM, 28 mM or 151 mM LiCl solution onto the embryo. Recombinant Noggin, Dkk1 specific goat IgG (R&D Systems) or serum of non-immunized goats (Sigma) was dissolved in 0.1% BSA/0.01% Fast Green/PBS. Noggin (10 or 100 ng), Dkk1 specific goat IgG (5 or 50 ng) or serum of non-immunized goats (50 ng) was applied to a single embryo at HH stages 17-19 by injecting a 10 μl solution through the extra-embryonic membranes.
# (§2) The morphology of the limbs was studied in specimens fixed in 5% trichloroacetic acid and stained for cartilage with alcian green as described (3).
# chicken embryos [2] = experiment: Thalidomide-induced limb truncations and microphthalmia in chicken embryos; format: in vivo
# Experimental: as §1, with “LiCl (99% pure, Sigma) was dissolved in sterile PBS. LiCl (0.1, 0.6 or 3.2 mg) was applied at HH stages 17-19 by dropping 500 μl of a 5 mM, 28 mM or 151 mM LiCl solution onto the embryo.” left out
# as §2
# [3] = test system: Bmp4 and Dkk1 expression in MEFs; experiment: sqRT-PCR of Bmp4 and Dkk1 expression in MEFs; format: cell-based, mouse; conditions: 10 μg/ml, six hours
# Experimental: (§3) Primary limb bud cells (PLBCs) were isolated from 60 pooled wing and hindlimb buds of HH stages 23/24 embryos. Fibroblasts were gained from HH stage 34 chicken embryos or from 13.5 d.p.c. mouse embryos. Human embryonic fibroblasts were provided by Matthias Maass (2). Before adding reagents, all cell types were cultured for 16 hours in D-MEM (Gibco) plus 10% fetal calf serum (FCS) and 2% chicken serum. Treatment with thalidomide, phthalimide, recombinant human (rh) BMP4 (300 ng/ml; R&D Systems), juglone (5 μM; Sigma), recombinant mouse Noggin (30, 300, 1000 ng/ml in FIG. 4B; 300 ng/ml in FIGS. 4C and 6A), anti-human-DKK1 antibody (35, 350 and 1000 ng/ml in FIG. 4B; 350 ng/ml in FIGS. 4C and 6A), LiCl (3, 30, 60 mM in FIG. 4B; 30 mM in FIGS. 4C, 6A and 6C) and/or (2Z,3E)-6-Bromoindirubin-3-oxime (BIO, Gsk3-Inhibitor IX; 50, 500, 1000 nM in FIG. 4B; 500 nM in FIG. 6A; 50 and 500 nM in FIG. 6C; Calbiochem) were performed in Optimem1 (Invitrogen) plus 1% FCS. Unless otherwise noted, all treatments with thalidomide and rh-BMP4 and associated controls were done for six hours. […]
# RNA isolation, semi-quantitative RT-PCRs and whole mount in situ hybridizations were performed according to standard protocols that are well known within the art. […] Quantifications were performed using NIH Image 1.62.
# [4] = test system: primary embryonic fibroblasts of mice (MEFs); experiment: Cell death by trypan blue staining in MEFs; format: cell-based, mouse
# Experimental: as §3
# (§4) Cell death in PLBCs, CEFs, MEFs and HEFs was detected by staining with trypan blue (0.1% (w/v) in PBS; Sigma) for 90 seconds. Cells were counted in a counting chamber to determine the ratio of dead to live cells.
# [5] = test system: human embryonic fibroblasts (HEFs); experiment: Cell death by trypan blue staining in HEFs; format: cell-based
# Experimental: (§5) Primary limb bud cells (PLBCs) were isolated from 60 pooled wing and hindlimb buds of HH stages 23/24 embryos. Fibroblasts were gained from HH stage 34 chicken embryos or from 13.5 d.p.c. mouse embryos. Human embryonic fibroblasts were provided by Matthias Maass (2). Before adding reagents, all cell types were cultured for 16 hours in D-MEM (Gibco) plus 10% fetal calf serum (FCS) and 2% chicken serum. Treatment with thalidomide, phthalimide, recombinant human (rh) BMP4 (300 ng/ml; R&D Systems), juglone (5 μM; Sigma), recombinant mouse Noggin (30, 300, 1000 ng/ml in FIG. 4B; 300 ng/ml in FIGS. 4C and 6A), anti-human-DKK1 antibody (35, 350 and 1000 ng/ml in FIG. 4B; 350 ng/ml in FIGS. 4C and 6A), LiCl (3, 30, 60 mM in FIG. 4B; 30 mM in FIGS. 4C, 6A and 6C) and/or (2Z,3E)-6-Bromoindirubin-3-oxime (BIO, Gsk3-Inhibitor IX; 50, 500, 1000 nM in FIG. 4B; 500 nM in FIG. 6A; 50 and 500 nM in FIG. 6C; Calbiochem) were performed in Optimem1 (Invitrogen) plus 1% FCS. Unless otherwise noted, all treatments with thalidomide and rh-BMP4 and associated controls were done for six hours. Inhibitors were applied once at the beginning of incubation with the exception of LiCl that was added 150 minutes before harvesting the cells for further analyses. Pre-treatment with phenyl-N-t-butylnitrone (PBN; 2 mM; Sigma) was performed for one hour. Incubations with juglone were performed for two hours, if applicable, after a pre-treatment with PBN, Noggin, anti-Dkk1 antibody, LiCl or Gsk3-Inhibitor IX for one hour.
# as §4
# β-catenin = experiment: Sub-cellular localization of β-catenin in CEFs; format: cell-based, chicken; conditions: in the presence of Wnt3a, data not shown
# Experimental: CEFs or HEFs attached on cover slips were incubated with Wnt3a-conditioned medium including thalidomide or solvent or with control medium for five hours. β-catenin was detected by using a mouse anti-β-catenin antibody (1:500, BD Transduction Laboratories), an anti-mouse Cy3-coupled secondary antibody (Dianova) and fluorescence microscopy. Afterwards, a DAPI staining was performed as a control. Quantification was done by counting the nuclei with a clear fluorescent signal in relation to the number of DAPI-stained nuclei.
# [6] = test system: Bmp4 and Dkk1 expression in PLBCs; experiment: sqRT-PCR of Bmp4 and Dkk1 expression in PLBCs; format: cell-based, chicken; conditions: 10 μg/ml, six hours
# Experimental: as §5
# RNA isolation, semi-quantitative RT-PCRs and whole mount in situ hybridizations were performed according to standard protocols that are well known within the art. RNA was isolated using TRIZOL (Gibco BRL) followed by DNAseI digestion. First strand synthesis was carried out with the Expand RT System (Roche) according to the manufacturer's instructions. PCR amplification was carried out primers and conditions within the knowledge of a person having skill in the relevant art. Quantifications were performed using NIH Image 1.62.
# [7] = test system: limb buds of HH stages 23/24 chicken embryos; experiment: Whole mount TUNEL staining of limb buds; format: in vivo
# Experimental: TUNEL staining was performed as described (7).
# [8] = chicken, in vivo, 7 day of incubation
smiles,measurement,setting,value
"O=C1CCC(N2C(=O)c3ccccc3C2=O)C(=O)N1 (racemic) [thalidomide, 2-(2,6-dioxo-3-piperidyl)isoindole-1,3-dione]","embryos with limb truncations, thalidomide-treated control embryos",chicken embryos [1]; control of the anti-Dkk1 antibody experiment (FIG. 7B),15%
same,"embryos with microphthalmia, thalidomide-treated control embryos",chicken embryos [1]; in vivo,23%
same,"embryos with limb truncations, thalidomide treatment",chicken embryos [1]; survived to day seven (FIG. 7A),19%
same,embryonic lethality in comparison to solvent controls,"chicken embryos [2]; 750 μg/kg egg weight, HH stages 4/5, first seven days",did not significantly increase embryonic lethality
same,EC50 for induction of limb and eye defects,chicken embryos [2]; applied at HH stages 4/5,50 μg/kg egg weight
same,dose inducing a maximum of limb truncations and microphthalmia,"chicken embryos [2]; chicken, in vivo",750 μg/kg egg weight
same,"other limb malformations (fusion at the level of the metacarpal cartilage, abducted legs), frequency in total","chicken embryos [2]; chicken, in vivo","observed, but at a much lower frequency (in total 4%, data not shown)."
same,embryos showing both limb abnormalities and microphthalmia,chicken embryos [2]; [8],about 5%
same,embryos with uni- or bilateral microphthalmia,chicken embryos [2]; [8],21%
same,effect of increasing the amount up to 3 mg/kg egg weight,chicken embryos [2]; in vivo,neither influenced the quality nor the quantity of limb truncations or microphthalmia
same,frequency of limb truncations and microphthalmia on application at later stages,chicken embryos [2]; in vivo,clearly reduced the frequency of limb truncations and microphthalmia
same,expression of Bmp4 and Dkk1 in MEFs,[3],not in MEFs
same,induction of cell death in MEFs,"[4]; 38.7 μM (10 μg/ml), six hours",did not induce cell death
same,induction of cell death in MEFs with longer incubation times and concentrations up to 100 μg/ml,"[4]; up to 100 μg/ml, data not shown",did not significantly induce cell death above controls
same,potential to induce PCD in HEFs,[5],very similar to that in chicken embryonic cells
same,EC50,"[5]; Homo sapiens, Fibroblast, 6 h, treated for six hours, read-out: EC50 for induction of apoptosis (PCD) in HEFs",8.9 µM
same,number of CEFs positive for nuclear β-catenin,β-catenin,dramatic reduction
same,expression of Bmp4 and Dkk1 in PLBCs,[6],induced the expression
same,limb buds with enlarged ANZ (whole mount TUNEL staining),[7]; HH stages 23/24 embryos,22 of 40
same,individual limb buds with enhanced PCD (TUNEL),"[7]; chicken, in vivo",53%

# From patent publication US7723301B2, “Pharmaceutical compositions comprising an anti-teratogenic compound and applications of the same” (The Board of Trustees of the University of Arkansas, priority 2007, dated 2010)
